Earlier results in patent publication US7645767B2, “Pharmaceutical compositions for treating chronic pain and pain associated with neuropathy” (Trinity Laboratories, Inc., priority 2006, dated 2010).

Key:
[1] = for accumulation during multiple dose treatment: multiple dose treatment with tramadol
μ-opiate receptors = μ-opiate receptors (Homo sapiens, UniProt P35372)
[2] = system: complex regional pain syndrome and neuropathic pain

Sequence of μ-opiate receptors (P35372 whole entry): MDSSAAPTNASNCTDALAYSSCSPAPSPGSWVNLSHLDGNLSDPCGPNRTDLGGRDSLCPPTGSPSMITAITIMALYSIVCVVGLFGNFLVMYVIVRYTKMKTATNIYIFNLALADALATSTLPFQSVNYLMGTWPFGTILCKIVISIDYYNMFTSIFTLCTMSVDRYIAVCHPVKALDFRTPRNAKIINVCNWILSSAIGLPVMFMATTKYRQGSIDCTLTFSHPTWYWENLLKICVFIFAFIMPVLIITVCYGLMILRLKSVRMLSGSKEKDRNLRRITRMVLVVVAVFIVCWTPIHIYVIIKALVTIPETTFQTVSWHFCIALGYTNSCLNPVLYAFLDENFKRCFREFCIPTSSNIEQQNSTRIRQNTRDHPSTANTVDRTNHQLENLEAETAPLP

## COc1cccc(C2(O)CCCCC2CN(C)C)c1 (racemic) [tramadol, (+/−)-trans (RR,SS)-2-[(dimethylamino)methyl]-1-(3-methoxyphenyl)cyclohexanol]
[1]; after oral administration
  time to peak serum concentrations: ≤ 2 h
[1]
  accumulation during multiple dose treatment: approximately 2 fold
μ-opiate receptors; relative to codeine
  affinity for μ-opiate receptors, fold less than codeine: 10 fold
μ-opiate receptors; relative to d-propoxyphene
  affinity for μ-opiate receptors, fold less than d-propoxyphene: 100 fold
μ-opiate receptors; relative to dextromethorphan
  affinity for μ-opiate receptors compared with dextromethorphan: equivalent
μ-opiate receptors; relative to morphine
  affinity for μ-opiate receptors, fold less than morphine: 6,000 fold
Analgesic effect; after a single oral dose of tramadol 100 mg
  duration of the analgesic effect: about 6 hours

## CN(C)C[C@H]1CCCC[C@]1(O)c1cccc(O)c1 [O-desmethyltramadol]
[1]; after a single oral dose of 100 mg tramadol, 2-compartmental elimination
  half-life: 9 h
[1]
  accumulation during multiple dose treatment: approximately 2 fold
Analgesic effect; relative to tramadol
  analgesic potency compared with parent drug: at least twice

## COc1cc(CNC(=O)CCCCC=CC(C)C)ccc1O [capsaicin, 8-methyl-N-vanillyl-6-nonenamide]
Oral dosing of rats, after 3 hours
  absorption in the jejunum: 85%
rats, i.v. administration
  time to distribution to brain, spinal cord, liver and blood: ≤ 20 min
[2]; capsaicin concentration 5-10% under regional anesthesia
  duration of sustained analgesia: 1 to 8 weeks
[2]; topical capsaicin trials
  dropout rates due to burning pain at the site of application: 33 to 67%
